Assays:
HEK-293 cells = test: phospho-ERK in non-transfected HEK-293 control cells; assay type: cell-based, human; settings: control HEK293, no GPRC6A
Protocol: (§1) Equal amounts of lysates were subjected to 10% SDS-PAGE, and phospho-ERK1/2 levels were determined by immunoblotting using antiphospho-ERK1/2 mitogen-activated protein kinase antibody (Cell Signaling Technology). […] An anti-peptide antibody was raised in a rabbit against a peptide ([…] (SEQ ID NO: 27)) corresponding to a sequence in the extracellular domain of mouse GPRC6A (in exon 1 of mouse GPRC6A gene) produced by Abgent (San Diego, Calif.). For phospho-ERK, the phospho-ERK1/2 levels were determined by immunoblotting using anti-phospho-ERK1/2 mitogen-activated protein kinase antibody (Cell Signaling Technology). Urinary β2-microglobulin was detected by rabbit polyclonal anti-β2-microglobulin antibody (Abcam Inc.). For aromatase expression analysis, the rabbit polyclonal anti-aromatase antibody (Abcam Inc.) and goat anti-rabbit IgG HRP secondary antibody (Santa Cruz Biotechnology Inc.) were used. Mouse anti-Actin antibody (Santa Cruz Biotechnology Inc.) was used for control protein loading.

GPRC6A = target: T1, GPRC6A (Mus musculus, UniProt Q8K4Z6); test: phospho-ERK activation in HEK-293 cells transfected with GPRC6A (immunoblot); assay type: cell-based; design: expressed in transfected cells; host or cells: HEK-293
T1 sequence (Q8K4Z6 21-928): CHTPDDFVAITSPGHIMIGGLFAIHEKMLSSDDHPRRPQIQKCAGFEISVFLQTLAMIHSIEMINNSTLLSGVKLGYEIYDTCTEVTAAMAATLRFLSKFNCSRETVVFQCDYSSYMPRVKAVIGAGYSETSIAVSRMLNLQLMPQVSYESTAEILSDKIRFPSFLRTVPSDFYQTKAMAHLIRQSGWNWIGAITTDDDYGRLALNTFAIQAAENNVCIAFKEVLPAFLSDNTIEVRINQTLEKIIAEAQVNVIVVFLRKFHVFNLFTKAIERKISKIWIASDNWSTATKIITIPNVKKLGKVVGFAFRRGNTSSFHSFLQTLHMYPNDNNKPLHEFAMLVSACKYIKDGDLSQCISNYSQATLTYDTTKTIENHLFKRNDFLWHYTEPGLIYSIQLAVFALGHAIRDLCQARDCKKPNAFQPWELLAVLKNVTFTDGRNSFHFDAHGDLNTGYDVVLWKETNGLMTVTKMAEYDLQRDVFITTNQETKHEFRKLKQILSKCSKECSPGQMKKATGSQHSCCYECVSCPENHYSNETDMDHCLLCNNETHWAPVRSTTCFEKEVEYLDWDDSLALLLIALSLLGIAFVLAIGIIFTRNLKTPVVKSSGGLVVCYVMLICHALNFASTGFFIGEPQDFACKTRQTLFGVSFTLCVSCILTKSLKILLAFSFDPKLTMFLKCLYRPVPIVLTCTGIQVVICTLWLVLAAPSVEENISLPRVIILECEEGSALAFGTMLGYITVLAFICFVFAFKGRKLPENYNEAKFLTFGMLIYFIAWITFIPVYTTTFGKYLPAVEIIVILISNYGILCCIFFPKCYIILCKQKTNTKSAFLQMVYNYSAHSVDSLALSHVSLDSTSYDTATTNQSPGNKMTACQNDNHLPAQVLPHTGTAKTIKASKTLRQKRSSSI
Protocol: as §1

seminal vesicles = test: seminal vesicle size after orchiectomy and testosterone replacement; assay type: in vivo, mouse; settings: testosterone slow releasing pellet
Text: First, the male WT and GPRC6A^−/− littermates will be castrated by removal of the testicles (orchiectomy) and hormone recovered by implanting testosterone slow releasing pellet.

[1] = system: bone marrow stromal cells (BMSC); test: phospho-ERK in bone marrow stromal cells from wild-type and GPRC6A-/- mice; assay type: cell-based, mouse
Protocol: The femurs and tibias from 8-week-old wild-type and GPRC6A^−/− mice were dissected, the ends of the bones were cut, and marrow was flushed out with 2 mL of ice-cold a-MEM containing 10% FBS using a needle and syringe. A suspension of bone marrow cells was obtained by repeated aspiration of the cell preparation through a 22-gauge needle, and nucleated cells were counted with a hemocytometer. Cells were seeded into 6-well plates at a density of 3×10^7 cells/mL and cultured for three days in a-MEM supplemented with 10% FBS, 100 kU/L of sodium penicillin G and 100 mg/L of streptomycin sulfate in a humidified incubator with 5% CO2 and 95% air at a temperature of 37° C. On day 3, all nonadherent cells were then removed with the first medium change and then the adherent cells (representing bone marrow-derived mesenchymal stem cells, BMSCs) were grown for additional periods of up 3 days in the same medium. After overnight quiescence, the cells were stimulated for 5 minutes by testosterone and p-estradiol at the concentrations as indicated.

bone marrow and testes = test: phospho-ERK activity and Egr-1 expression in bone marrow and testes in vivo; design: species or system mouse; settings: 200 mg/kg intraperitoneally
Protocol: (§2) To establish a linkage between non-genomic effects of androgens and tissue responses in vivo, we examined the impact of loss of GPRC6A on the capacity of testosterone to stimulate phospho-ERK activity and early growth-responsive 1 (Egr-1) expression in bone marrow and testes in vivo (FIGS. 8D and 8E). To accomplish this, we administered testosterone at a dose of 200 MG/KG or vehicle intraperitonealy to wild-type and GPRC6A^−/− male mice.
as §2, with “(FIG.” for “in vivo (FIGS. 8D and”, “mg/kg” for “MG/KG”, “intraperitoneally” for “intraperitonealy”, “mice. Bone marrow was harvested at 20 and 60 minutes for assessment of ERK phosphorylation and Egr-1 mRNA expression.” for “mice.”

## C[C@]12CC[C@H]3[C@@H](CCC4=CC(=O)CC[C@@]43C)[C@@H]1CC[C@@H]2O [testosterone]
HEK-293 cells
  phospho-ERK response: did not responded
GPRC6A
  medium calcium concentration required for testosterone activation of GPRC6A: > 0.5 mM
GPRC6A; GPRC6A expressing HEK-293 cells
  activation of phospho-ERK in cytosol and nucleus: stimulated activation of phospho-ERK in both the cytosol and nucleus
GPRC6A; HEK-293 cells transfected with GPRC6A
  GPRC6A-mediated activation of phospho-ERK: stimulated extracellular signal-regulated kinase phosphorylation (phospho-ERK) in a dose-dependent fashion
Seminal vesicles; orchidectomized GPRC6A-/- mice
  recovery of seminal vesicle size: weaker compared to wild-type
Seminal vesicles; orchidectomized wild-type mice
  recovery of seminal vesicle size: effectively recovered the size of seminal vesicles
[1]; BMSC from GPRC6A-/- mice, testosterone up to 80 nM
  stimulation of phospho-ERK in BMSC: only minimal effects
[1]; BMSC from wild-type mice
  stimulation of phospho-ERK in BMSC: substantial stimulation of ERK
Bone marrow and testes; GPRC6A-/- male mice
  Egr-1 expression in bone marrow and testes: markedly attenuated
  phospho-ERK activity in bone marrow and testes: markedly attenuated
Bone marrow and testes; wild-type male mice
  Egr-1 expression in bone marrow and testes: stimulated
  phospho-ERK activity in bone marrow and testes: stimulated
